From patent US6984727B1, “Gene involved in brassinosteroid responses” (National Institute of Agrobiological Science, priority 2000, dated 2006)

System: second leaf of rice
Assay: leaf blade bend response test (brassinosteroid response test)
Type: in vivo
Details: cut second leaf germinated in the dark, immersed in 1 ng/ml solution for 48 hours
From the text: The present gene was deduced to be a factor involved in the signal transduction system for plant hormones, taking note of the facts that the present gene was expressed in all plant bodies and that pleiotropic influences resulted from destroying this gene, as well as the possibility that the gene might be a factor involved in the signal transduction system. Presuming that the signal transduction system is that for brassinosteroid hormone in view of the resultant upright form, the inventors performed a leaf blade bend response test as a brassinosteroid response test, by using brassinolide, which is one kind of brassinosteroid hormone. The second leaf of rice which was allowed to germinate in the dark was cut off, and immersed in a 1 ng/ml of brassinosteroid solution for 48 hours.

## CC(C)[C@H](C)[C@@H](O)[C@H](O)[C@@H](C)[C@H]1CC[C@H]2[C@@H]3COC(=O)[C@H]4C[C@H](O)[C@H](O)C[C@]4(C)[C@H]3CC[C@]12C [brassinolide]
Tos17-insertion mutant individuals (A0369, NC6148)
  bending of the leaf blades and leaf sheath junctions: showed little bending thereof
Wild type individuals (Akitakomachi, Nipponbare)
  bending of the leaf blades and leaf sheath junctions: showed bending of the leaf blades and leaf sheath junctions
